Activity calls are given as the source filed them. No cut-off for these calls is given here.
Columns and labels:
Histone deacetylase 1 = Histone deacetylase 1 (Homo sapiens, UniProt Q13547); test: Inhibition of human recombinant HDAC1 using Ac-Leu-Gly-Lys (Ac)-AMC as substrate preincubated with compound for 10 mins followed by substrate addition and measured after 45 mins by TECAN microtiter plate reader analysis
HCT-116 = test: cells; details: Homo sapiens, HCT-116, 48 h
Description: Antiproliferative activity against human HCT-116 cells assessed as reduction in cell viability measured for 48 hrs by MTT assay

[1] = biological target: T1, Protein deacetylase HDAC6 (Homo sapiens, UniProt Q9UBN7); test: Inhibition of human recombinant HDAC6 using Ac-Leu-Gly-Lys (Ac)-AMC as substrate preincubated with compound for 10 mins followed by substrate addition and measured after 45 mins by TECAN microtiter plate reader analysis
T1 sequence (Q9UBN7 whole entry): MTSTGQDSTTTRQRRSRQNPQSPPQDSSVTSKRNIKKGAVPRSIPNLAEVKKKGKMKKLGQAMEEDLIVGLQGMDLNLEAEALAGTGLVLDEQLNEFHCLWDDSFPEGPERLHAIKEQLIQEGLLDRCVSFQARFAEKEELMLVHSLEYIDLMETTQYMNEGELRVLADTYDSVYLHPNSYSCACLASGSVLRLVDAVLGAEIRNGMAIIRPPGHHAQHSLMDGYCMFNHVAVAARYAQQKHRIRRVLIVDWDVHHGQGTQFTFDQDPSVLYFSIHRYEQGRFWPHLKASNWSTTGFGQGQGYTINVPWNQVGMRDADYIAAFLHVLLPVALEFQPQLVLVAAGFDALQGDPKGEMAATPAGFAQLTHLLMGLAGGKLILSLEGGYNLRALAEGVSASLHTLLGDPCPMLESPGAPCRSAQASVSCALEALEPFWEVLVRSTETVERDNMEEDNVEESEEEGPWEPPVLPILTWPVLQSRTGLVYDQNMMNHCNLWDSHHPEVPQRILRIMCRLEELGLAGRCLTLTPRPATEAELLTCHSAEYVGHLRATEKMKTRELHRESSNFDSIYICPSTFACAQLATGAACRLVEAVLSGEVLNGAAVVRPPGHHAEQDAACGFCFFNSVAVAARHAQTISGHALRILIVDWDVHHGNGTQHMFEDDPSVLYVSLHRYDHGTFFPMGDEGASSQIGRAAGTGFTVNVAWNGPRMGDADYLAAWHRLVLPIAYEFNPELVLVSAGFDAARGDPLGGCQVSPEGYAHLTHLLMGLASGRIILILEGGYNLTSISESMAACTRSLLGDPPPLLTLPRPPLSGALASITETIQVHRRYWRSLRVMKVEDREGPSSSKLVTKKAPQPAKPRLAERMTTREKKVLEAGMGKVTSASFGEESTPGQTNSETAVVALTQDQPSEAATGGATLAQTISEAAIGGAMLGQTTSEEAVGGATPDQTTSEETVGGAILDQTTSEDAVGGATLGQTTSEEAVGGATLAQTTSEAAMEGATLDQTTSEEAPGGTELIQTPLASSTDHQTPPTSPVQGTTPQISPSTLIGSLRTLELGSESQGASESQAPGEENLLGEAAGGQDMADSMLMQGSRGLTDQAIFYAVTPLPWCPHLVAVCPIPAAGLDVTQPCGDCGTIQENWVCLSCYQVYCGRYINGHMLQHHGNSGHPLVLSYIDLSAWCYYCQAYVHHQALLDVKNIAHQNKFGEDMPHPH

Raji = test: Antiproliferative activity against human Raji cells assessed as reduction in cell viability measured for 48 hrs by MTT assay; assay type: functional, cell-based
Daudi = test: Antiproliferative activity against human Daudi cells assessed as reduction in cell viability measured for 48 hrs by MTT assay; assay type: functional, cell-based
Histone deacetylase 7 = biological target: T2, Histone deacetylase 7 (Homo sapiens, UniProt Q8WUI4); test: Inhibition of human recombinant HDAC7 using Ac-Leu-Gly-Lys (Tfa)-AMC as substrate preincubated with compound for 10 mins followed by substrate addition and measured after 45 mins by TECAN microtiter plate reader analysis
T2 sequence (Q8WUI4 whole entry): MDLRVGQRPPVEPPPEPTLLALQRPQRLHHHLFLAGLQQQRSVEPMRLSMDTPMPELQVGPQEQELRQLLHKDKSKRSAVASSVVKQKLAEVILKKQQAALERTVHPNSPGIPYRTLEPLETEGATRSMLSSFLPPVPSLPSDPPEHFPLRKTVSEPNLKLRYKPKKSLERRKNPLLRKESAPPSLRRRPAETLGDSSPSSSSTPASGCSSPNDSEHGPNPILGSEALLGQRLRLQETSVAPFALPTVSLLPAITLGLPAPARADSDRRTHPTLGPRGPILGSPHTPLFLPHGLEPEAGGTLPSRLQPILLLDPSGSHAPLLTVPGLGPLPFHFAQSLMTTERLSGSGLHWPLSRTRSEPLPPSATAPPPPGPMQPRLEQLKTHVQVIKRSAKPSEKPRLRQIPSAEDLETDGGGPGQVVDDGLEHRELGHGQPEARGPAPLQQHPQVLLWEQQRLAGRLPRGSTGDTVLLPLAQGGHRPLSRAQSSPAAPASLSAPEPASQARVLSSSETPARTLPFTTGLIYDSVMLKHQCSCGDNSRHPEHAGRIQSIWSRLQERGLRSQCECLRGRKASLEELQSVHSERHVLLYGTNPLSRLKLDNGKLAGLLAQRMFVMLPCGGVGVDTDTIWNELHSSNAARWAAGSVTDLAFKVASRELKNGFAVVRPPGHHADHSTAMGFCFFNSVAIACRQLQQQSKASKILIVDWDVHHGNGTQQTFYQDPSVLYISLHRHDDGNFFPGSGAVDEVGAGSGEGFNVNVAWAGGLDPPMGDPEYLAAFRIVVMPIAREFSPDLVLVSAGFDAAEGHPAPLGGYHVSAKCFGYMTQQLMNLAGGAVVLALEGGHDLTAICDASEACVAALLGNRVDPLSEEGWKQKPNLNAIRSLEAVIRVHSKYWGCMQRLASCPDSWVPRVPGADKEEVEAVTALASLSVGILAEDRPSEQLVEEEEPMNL

B16-F10 = test: Antiproliferative activity against mouse B16-F10 cells assessed as reduction in cell viability measured for 48 hrs by MTT assay; assay type: functional, cell-based; details: B16-F10, 48 h
MCF7 = test: cells; details: Homo sapiens, MCF7, 48 h
Description: Antiproliferative activity against human MCF7 cells assessed as reduction in cell viability measured for 48 hrs by MTT assay

Chain of Histone deacetylase 1 (Q13547 whole entry): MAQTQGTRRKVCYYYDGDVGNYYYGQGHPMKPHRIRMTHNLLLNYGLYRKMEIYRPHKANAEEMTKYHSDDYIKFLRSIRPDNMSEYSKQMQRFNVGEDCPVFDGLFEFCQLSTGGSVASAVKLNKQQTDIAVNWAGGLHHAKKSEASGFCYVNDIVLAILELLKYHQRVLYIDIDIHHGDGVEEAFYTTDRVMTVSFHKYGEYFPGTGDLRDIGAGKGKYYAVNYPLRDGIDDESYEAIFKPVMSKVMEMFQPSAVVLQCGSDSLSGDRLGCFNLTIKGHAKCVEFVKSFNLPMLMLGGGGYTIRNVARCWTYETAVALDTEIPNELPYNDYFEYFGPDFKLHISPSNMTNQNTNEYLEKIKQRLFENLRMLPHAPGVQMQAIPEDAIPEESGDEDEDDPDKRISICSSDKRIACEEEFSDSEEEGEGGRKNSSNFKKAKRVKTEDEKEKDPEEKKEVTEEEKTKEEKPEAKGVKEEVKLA

SMILES | IC50 (Histone deacetylase 1) [µM] | IC50 (HCT-116) [µM] | IC50 [1] [µM] | Activity (Raji) | Activity (Daudi) | IC50 (Histone deacetylase 7) [µM] | IC50 (B16-F10) [µM] | IC50 (MCF7) [µM]
CCCNNC(=O)c1ccc(CNC(=O)c2ncc(CNc3ccccc3)s2)cc1 | 0.73 | 0.43 | > 10 | Active | Active | > 10 | 1.2 | 2.94
Nc1ccccc1NC(=O)c1ccc(-c2ncc(CNc3ccccc3)s2)cc1 | 0.51 | 1.57 | > 10 | Active | Active | > 10 | 1.34 | 3.34
